Assay results taken from PubChem BioAssay AID651874 (Southern Research Specialized Biocontainment Screening …, 2012).

tested on: VEEV TrD infected cells, viral cytopathic effect inhibition; assay: VEEV TrD cytopathic effect inhibition, confirmation, cell-based, Trinidad donkey strain, set 2 (AID 651874)

Question: With `COc1cccc(-n2c(CN3CCNCC3)nc3ccc([N+](=O)[O-])cc3c2=O)c1` as the compound, how does the IC50 read?
Answer: The IC50 was 5630 nM.

Question: For `CCN1CCN(C)CC1=Nc1ccc([N+](=O)[O-])cc1C(=O)Nc1ccccc1`, which IC50 is on record?
Answer: The IC50 was 34 nM.

Question: `CCN1CCN(Cc2nc3ccc([N+](=O)[O-])cc3c(=O)n2-c2cccc(F)c2)CC1` was tested. Which IC50 did it give?
Answer: Its IC50 is 278 nM.

Question: How did the IC50 turn out when `O=c1c2cc([N+](=O)[O-])ccc2nc(CN2CCNCC2)n1-c1ccccc1` was run?
Answer: The IC50 was 86 nM.

Question: With `CCN1CCN(Cc2nc3ccc(C#N)cc3c(=O)n2-c2ccccc2)CC1` as the compound, how does the IC50 read?
Answer: The IC50 was 1090 nM.

Question: For `CCN1CCN(Cc2nc3ccc([N+](=O)[O-])cc3c(=O)n2-c2ccccc2F)CC1`, which IC50 is on record?
Answer: The IC50 was 557 nM.

Question: How did the IC50 turn out when `CCN1CCN(Cc2nc3ccc([N+](=O)[O-])cc3c(=O)n2-c2ccccc2)CC1` was run?
Answer: Its IC50 is 241 nM.

Question: With `CN1CCN(C)C(=Nc2ccc([N+](=O)[O-])cc2C(=O)Nc2ccccc2)C1` as the compound, how does the IC50 read?
Answer: The IC50 was 40.1 nM.

Question: With `CN1CCN(C)C(=Nc2ccc(C#N)cc2C(=O)Nc2cccc(F)c2)C1` as the compound, how does the IC50 read?
Answer: Its IC50 is 823 nM.

Question: `CN1CCN(C)C(=Nc2cc(Cl)c(C#N)cc2C(=O)Nc2ccccc2)C1` was tested. Which IC50 did it give?
Answer: Its IC50 is 113 nM.

Question: Which IC50 does the source give for `CN1CCN(Cc2nc3ccc([N+](=O)[O-])cc3c(=O)n2-c2ccccc2F)CC1` here?
Answer: Its IC50 is 139 nM.

Question: `CCN1CCN(Cc2nc3ccc([N+](=O)[O-])cc3c(=O)n2-c2ccc(F)cc2)CC1` was tested. Which IC50 did it give?
Answer: Its IC50 is 605 nM.

Question: Which IC50 does the source give for `COc1ccc(NC(=O)c2cc([N+](=O)[O-])ccc2N=C2CN(C)CCN2C)cc1` here?
Answer: Its IC50 is 45 nM.

Question: Which IC50 does the source give for `CN1CCN(C)C(=Nc2ccc(C#N)cc2C(=O)Nc2ccccc2)C1` here?
Answer: The IC50 was 319 nM.

Question: For `O=c1c2cc([N+](=O)[O-])ccc2nc(CN2CCNCC2)n1-c1ccsc1`, which IC50 is on record?
Answer: The IC50 was 905 nM.

Question: For `O=c1c2cc([N+](=O)[O-])ccc2nc(CN2CCNCC2)n1-c1ccccc1F`, which IC50 is on record?
Answer: The IC50 was 148 nM.

Question: With `COc1ccc(-n2c(CN3CCNCC3)nc3ccc([N+](=O)[O-])cc3c2=O)cc1` as the compound, how does the IC50 read?
Answer: Its IC50 is 96.6 nM.

Question: For `CNCCCN(C)Cc1nc2ccc([N+](=O)[O-])cc2c(=O)n1-c1ccccc1`, which IC50 is on record?
Answer: The IC50 was 405 nM.

Question: Which IC50 does the source give for `CN1CCN(C)C(=Nc2ccc([N+](=O)[O-])cc2C(=O)Nc2ccccc2F)C1` here?
Answer: Its IC50 is 158 nM.

Question: For `CCN1CCN(Cc2nc3ncc([N+](=O)[O-])cc3c(=O)n2-c2ccccc2)CC1`, which IC50 is on record?
Answer: Its IC50 is 3080 nM.
